Results from patent US9006467B2, “1,2,3-triazole containing artemisinin compounds and process for preparation thereof” (Councel of Scientific & Industrial Research, priority 2011, dated 2015).

Columns and labels:
[1] = tested on: colon HCT-15 human cancer cell line; assay: In vitro cytotoxicity against human cancer cell lines (sulforhodamine B), colon HCT-15; assay type: cell-based; conditions: 48 hours, read-out: % GROWTH INHIBITION colon HCT-15; for inhibition at 50 µM: 5 × 10^−5 M
Lung cancer cell A-549 = assay: In vitro cytotoxicity against human cancer cell lines (sulforhodamine B), Lung A-549; assay type: cell-based; conditions: 48 hours, read-out: % GROWTH INHIBITION Lung A-549; for inhibition at 50 µM: A549, 5 × 10^−5 M; for inhibition at 10 µM: A549, 1 × 10^−5 M
Description: (§1) The human cancer cell lines procured from National Cancer Institute, Frederick, U.S.A., were used in present study. Cells were grown in tissue culture flasks in complete growth medium (RPMI-1640 medium with 2 mM glutamine, 100 μg/mL streptomycin, pH 7.4, sterilized by filtration and supplemented with 10% fetal bovine serum and 100 units/ml penicillin before use) at 37 QC in an atmosphere of 5% CO2 and 90% relative humidity in a carbon dioxide incubator. The cells at subconfluent stage were harvested from the flask by treatment with trypsin (0.05% in PBS containing 0.02% EDTA) for determination of cytotoxicity. The cell suspension of the required cell density was prepared in complete growth medium with gentamycin (50 μg/mL) for determination of cytotoxicity.
(§2) Stock solutions of 2×10^−2M of test materials were prepared in DMSO. The stock solutions were serially diluted with complete growth medium containing 50 μg/ml of gentamycin to obtain working test solution of 2×10^−5M to obtain final concentration of 1×10^−5M respectively.
(§3) In vitro cytotoxicity against human cancer cell lines was determined (Monks et al., J. Natl. Cancer Inst. 1991, 83, 757-766). The 100 μL of cell suspension was added to each well of the 96-well tissue culture plate. The cells were incubated for 24 hours (at 37° C. in an atmosphere of 5% CO2 and 90% relative humidity in a carbon dioxide incubator). Test materials in complete growth medium (100 μL) were added after 24 hours incubation to the wells containing cells. The plates were further incubated for 48 hours in a carbon dioxide incubator after addition of test material. The cell growth was stopped by gently layering trichloroacetic acid (50 μL, 50% w/v) on top of the medium in all the wells. The plates were incubated at 4° C. for one hour to fix the cells attached to the bottom of the wells. The liquid of all the wells was then gently decanted and discarded. The plates were washed five times with distilled water and air-dried. Cell growth was measured by staining with sulforhodamine B dye (Skehan et al., J. Natl. Cancer Inst. 1990, 82, 1107-1112). The adsorbed dye was dissolved in Tris-Buffer (100 μL, 0.01M, pH 10.4) and plates were gently stirred for 10 minutes on a mechanical stirrer. The optical density (OD) was recorded on ELISA reader at 540 nm.
(§4) The cell growth was calculated by subtracting mean OD value of respective blank from the mean OD value of experimental set. Percent growth in presence of test material was calculated considering the growth in absence of any test material as 100% and in turn percent growth inhibition in presence of test material was calculated. Suitable blank, controls and positive controls were included in the study.

leukaemia THP-1 = assay: In vitro cytotoxicity against human cancer cell lines (sulforhodamine B), leukaemia THP-1; assay type: cell-based; conditions: 48 hours, read-out: % GROWTH INHIBITION leukaemia THP-1; for inhibition at 50 µM: 5 × 10^−5 M; for inhibition at 10 µM: 1 × 10^−5 M
Description: as §1, §2, §3, §4

[2] = tested on: colon HCT-15 human cancer cell line; assay: In vitro cytotoxicity against human cancer cell lines (sulforhodamine B), colon HCT-15; assay type: cell-based; conditions: 1 × 10^−5 M, 48 hours, read-out: % GROWTH INHIBITION colon HCT-15
Description: as §1, §2, §3, §4

[3] = tested on: Ehrlich ascites tumor (EAT) cells; conditions: MTT assay, read-out: IC50 (drug concentration causing 50% growth inhibition of the tumor cells); cited from earlier work
CMV [4] = conditions: cited from earlier work
P388 leukemia = conditions: NCI Report on NSC 369397; cited from earlier work
[5] = tested on: cell line panels consisting of 60 lines; conditions: nine disease-related subpanels; cited from earlier work
CMV [6] = conditions: cited from earlier work; remark: listed apart in the source
[7] = tested on: human liver cell line of HEP-2 type; assay: In vitro cytotoxicity against human cancer cell lines (sulforhodamine B), Liver HEP-2; assay type: cell-based; conditions: 1 × 10^−5 M, 48 hours
Description: as §1, with “The cell suspension of the required cell density was prepared in complete growth medium with gentamycin (50 μg/mL) for determination of cytotoxicity.” left out
In vitro cytotoxicity against human cancer cell lines was determined (Monks et al., J. Natl. Cancer Inst. 1991, 83, 757-766). […] Cell growth was measured by staining with sulforhodamine B dye (Skehan et al., J. Natl. Cancer Inst. 1990, 82, 1107-1112). […] The optical density (OD) was recorded on ELISA reader at 540 nm.
as §4, with “Suitable blank, controls and positive controls were included in the study.” left out

Row | Compound | inhibition at 50 µM [1] [%] | inhibition at 50 µM (Lung cancer cell A-549) [%] | inhibition at 50 µM (leukaemia THP-1) [%] | inhibition at 10 µM [2] [%] | inhibition at 10 µM (Lung cancer cell A-549) [%] | inhibition at 10 µM (leukaemia THP-1) [%] | other results
1 | C[C@H]1[C@H](OCc2cn(C3O[C@@H]4O[C@@]5(C)CC[C@H]6[C@H](C)CC[C@@H]([C@H]3C)[C@@]46OO5)nn2)O[C@@H]2O[C@]3(C)CC[C@H]4[C@H](C)CC[C@@H]1[C@@]24OO3 (some centres unmarked) [Compound 14] | 63 | 22 | 62 |  |  |  | 
2 | C[C@@H]1CC[C@H]2[C@@H](C)C(=O)O[C@@H]3O[C@@]4(C)CC[C@@H]1[C@]32OO4 [Artemisinin, artemisinin] | 31 | 29 |  | 29 | 19 |  | IC50 [3]: 29.8 µM; anti-CMV activity, in words (CMV [4]; in-vitro): lower anti-CMV activity compared to artesunate; activity against P388 leukemia (P388 leukemia): inactive; anticancer activity in 60 cell line panel [5]: very little anticancer activity
3 | C[C@H]1[C@H](OC(=O)CCC(=O)O)O[C@@H]2O[C@@]3(C)CC[C@H]4[C@H](C)CC[C@@H]1[C@@]24OO3 [artesunate, sodium artesunate] |  |  |  |  |  |  | CMV replication in rat CMV model (CMV [6]): inhibit CMV replication; in-vitro inhibition of clinical isolates (CMV [4]; 11.1 μM): 50-80%; cytotoxicity (CMV [4]; CMV replication study): no cytotoxicity
4 | CO[C@@]12[C@H](COC(N)=O)C3=C(C(=O)C(C)=C(N)C3=O)N1C[C@@H]1N[C@@H]12 [Mitomycin-c] |  |  |  |  |  |  | % GROWTH INHIBITION Liver HEP-2 [7]: 58%
5 | C[C@H]1[C@H](OCCc2cn(C3O[C@@H]4O[C@@]5(C)CC[C@H]6[C@H](C)CC[C@@H]([C@H]3C)[C@@]46OO5)nn2)O[C@@H]2O[C@]3(C)CC[C@H]4[C@H](C)CC[C@@H]1[C@@]24OO3 (some centres unmarked) [Compound 15] | 70 | 48 | 79 | 66 | 29 | 78 | 
6 | C[C@H]1[C@H](OCCc2cn(-c3ccc(-c4ccc(-n5cc(CCO[C@@H]6O[C@@H]7O[C@@]8(C)CC[C@H]9[C@H](C)CC[C@@H]([C@H]6C)[C@@]79OO8)nn5)cc4)cc3)nn2)O[C@@H]2O[C@@]3(C)CC[C@H]4[C@H](C)CC[C@@H]1[C@@]24OO3 [Compound 13] | 66 | 46 | 82 | 56 | 41 | 63 | 
7 | C[C@H]1[C@H](OCc2cn(-c3ccc(-c4ccc(-n5cc(CO[C@@H]6O[C@@H]7O[C@@]8(C)CC[C@H]9[C@H](C)CC[C@@H]([C@H]6C)[C@@]79OO8)nn5)cc4)cc3)nn2)O[C@@H]2O[C@@]3(C)CC[C@H]4[C@H](C)CC[C@@H]1[C@@]24OO3 [Compound 12] | 78 | 64 | 80 | 75 | 56 | 75 | 
8 | O=c1[nH]cc(F)c(=O)[nH]1 [5-Fluorouracil, reference compound] |  |  |  |  |  |  | inhibition at 20 µM ([1]; 2 × 10^−5 M): 65%; inhibition at 20 µM (leukaemia THP-1; 2 × 10^−5 M): 73%
